Measured values taken from ChEMBL document CHEMBL1137950, “Studies on 1-O-acetylbritannilactone and its derivative, (2-O-butyloxime-3-phenyl)-propionyl-1-O-acetylbritannilactone ester” (2004).
Converted amounts (≈) assume the structure as drawn.

Experiments:
HL-60 = test: Compound was tested for its cytotoxic activity against human HL-60 promyelocytic leukemia cell line; assay type: functional; settings: read-out: ID50 (the source's name)
Bel-7402 = test: Compound was tested for its cytotoxic activity against human Bel-7402 Hepatocellular carcinoma cell line; assay type: functional; settings: read-out: ID50 (the source's name)

C=C1C(=O)O[C@@H]2CC(C)=C([C@@H](C)CCCOC(C)=O)[C@H](OC(=O)/C(Cc3ccccc3)=N/OCCCC)[C@H]12
IC50 (HL-60): 4.3 mg/L (≈ 8.18 µM)
IC50 (Bel-7402): 7.2 mg/L (≈ 13.7 µM)

C=C1C(=O)O[C@@H]2CC(C)=C([C@@H](C)CCCOC(C)=O)[C@H](O)[C@H]12
IC50 (HL-60): 18.4 mg/L (≈ 59.7 µM)
IC50 (Bel-7402): 15.6 mg/L (≈ 50.6 µM)
